Source: patent US9434734B2, “Substituted pyrazoloquinazolinones and pyrroloquinazolinones as allosteric modulators of group II metabotropic glutamate receptors” (Domain Therapeutics, priority 2012, dated 2016)
Where two headings read alike, the source gives them in different places.

Legend:
[1] = biological target: T1, human mGluR2 (hmGluR2) transiently over-expressed in HEK-293 cells (Homo sapiens, UniProt Q14416); assay: Human mGluR2 negative allosteric modulator evaluation using Ca++ functional assay (agonist and NAM activity); assay type: cell-based
T1 construct: expressed in transfected cells; host or cells: HEK-293 cells, transient co-transfection by electroporation
T1 sequence (Q14416 19-872): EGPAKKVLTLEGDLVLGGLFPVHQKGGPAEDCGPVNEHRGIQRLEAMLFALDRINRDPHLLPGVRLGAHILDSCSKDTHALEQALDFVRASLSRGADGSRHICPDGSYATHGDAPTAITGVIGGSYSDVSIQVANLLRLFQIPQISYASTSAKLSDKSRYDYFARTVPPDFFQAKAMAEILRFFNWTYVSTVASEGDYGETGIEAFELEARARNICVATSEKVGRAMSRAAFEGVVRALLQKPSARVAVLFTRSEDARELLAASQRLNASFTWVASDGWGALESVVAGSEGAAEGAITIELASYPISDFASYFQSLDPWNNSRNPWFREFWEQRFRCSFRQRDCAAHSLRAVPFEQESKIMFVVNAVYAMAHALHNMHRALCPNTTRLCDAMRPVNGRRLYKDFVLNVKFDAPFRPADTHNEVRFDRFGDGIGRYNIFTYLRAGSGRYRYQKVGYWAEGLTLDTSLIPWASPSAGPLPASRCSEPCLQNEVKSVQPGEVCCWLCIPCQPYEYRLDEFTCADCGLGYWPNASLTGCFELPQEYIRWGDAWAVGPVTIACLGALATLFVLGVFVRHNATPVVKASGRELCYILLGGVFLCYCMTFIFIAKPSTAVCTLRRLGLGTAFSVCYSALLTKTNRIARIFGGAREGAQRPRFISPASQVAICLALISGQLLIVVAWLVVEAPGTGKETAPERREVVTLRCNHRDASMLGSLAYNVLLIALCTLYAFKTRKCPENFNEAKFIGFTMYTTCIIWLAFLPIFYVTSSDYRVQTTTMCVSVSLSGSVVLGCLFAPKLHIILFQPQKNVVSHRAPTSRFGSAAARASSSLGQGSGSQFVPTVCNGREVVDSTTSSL
Experimental: Human mGluR2 Negative Allosteric Modulator Evaluation Using Ca^++ Functional Assay
Compounds of the present invention were tested successively for their agonist and negative allosteric modulator activities on human mGluR2 (hmGluR2) transiently over-expressed in HEK-293 cells. They exert agonist activity if they are able to activate mGluR2 by themselves, i.e., in absence of the endogenous agonist glutamate; and they exert negative allosteric modulator activity if they decrease the action of the endogenous agonist glutamate.
HEK-293 cells were maintained in Modified Eagle's Medium supplemented with 10% Foetal Calf Serum, 1% Penicillin/Streptomycin and 1% nonessential amino acids at 37° C./5% CO2.
Cells were plated after transfection onto polyornithine coated, clear bottom, black-walled, 96-well plates and cultured for 24 h.
Receptor activity was detected by changes in intracellular calcium measured using the fluorescent Ca^2+ sensitive dye, Fluo4AM (Molecular Probes).
The day of the assay, medium was aspirated and replaced during 3 hours by medium without serum supplemented with 1% Glutamax, 1% Penicillin/Streptomycin and 1% nonessential amino acids. Then, cells were washed with freshly prepared buffer B (HBSS 1× (PAA), Hepes 20 mM, MgSO4-7H2O 1 mM, Na2CO3 3.3 mM, CaCl2-2H2O 1.3 mM, 0.5% BSA, Probenecid 2.5 mM) and loaded at 37° C./5% CO2 for 1.5 hours with buffer B containing 1 μM Fluo4AM, 0.1 mg/mL Pluronic Acid, 7 μg/mL Glutamate Pyruvate Transaminase and 2 mM sodium pyruvate. Afterwards cells were washed twice with buffer B and 50 μL of this buffer were added to each well.
Agonist and negative allosteric modulator activities of compounds were consecutively evaluated on the same cells plate. […] Then, the cells were stimulated by an EC80 glutamate concentration and fluorescence was recorded for additional 60 s. EC80 glutamate concentration is the concentration giving 80% of the maximal glutamate response. Agonist and/or negative allosteric modulator activity(ies) were evaluated in comparison to basal signal or signal evoked by EC80 glutamate alone, respectively.
For potency determination, a dose-response test was performed using 8 concentrations of each compound of the invention. Dose-response curves were fitted using the sigmoidal dose-response (variable slope) analysis in GraphPad Prism program (Graph Pad Inc) and EC50 of agonist/IC50 of negative allosteric modulator activity was calculated. Dose-response experiments were all performed in duplicate, two times independently.

[2] = hmGluR2 in HEK-293 cells, EC80 glutamate, Fluo4AM calcium readout, read-out: mGluR2 negative allosteric modulator activity IC50

| SMILES | IC50 [1, 2] | melting point | IC50 ([1]; N-methylated compounds, statement in description, read-out: IC50 for mGluR2) |
| --- | --- | --- | --- |
| Cc1nc(N)cnc1-c1ccc2c(=O)n(C)c3cc(-c4ccccc4)nn3c2c1.Cl [Example 32, 8-(5-Amino-3-methyl-pyrazin-2-yl)-4-methyl-2-phenyl-4H-pyrazolo[1,5-a]quinazolin-5-one] | < 1000 nM | 188 to 189 °C |  |
| Cn1c(=O)c2ccc(-c3cccc(C#N)c3)cc2n2nc(-c3ccccc3)cc12 [Example 35, 3-(4-Methyl-5-oxo-2-phenyl-4,5-dihydro-pyrazolo[1,5-a]quinazolin-8-yl)-benzonitrile] | < 1000 nM | > 250 °C |  |
| Cc1cc(-c2ccc3c(=O)n(C)c4cc(-c5ccccc5)nn4c3c2)cc(C)n1.Cl [Example 37, 8-(2,6-Dimethyl-pyridin-4-yl)-4-methyl-2-phenyl-4H-pyrazolo[1,5-a]quinazolin-5-one] | < 1000 nM | > 250 °C |  |
| CN(C)S(=O)(=O)c1cccc(-c2ccc3c(=O)n(C)c4cc(-c5ccccc5)nn4c3c2)c1 [Example 38, N,N-Dimethyl-3-(4-methyl-5-oxo-2-phenyl-4,5-dihydro-pyrazolo[1,5-a]quinazolin-8-yl)-benzenesulfonamide] | < 1000 nM | 202 to 204 °C | < 30 nM |
| CCn1c(=O)c2ccc(-c3cccc(S(=O)(=O)N(C)C)c3)cc2n2nc(-c3ccccc3)cc12 [Example 39, N,N-Dimethyl-3-(4-Ethyl-5-oxo-2-phenyl-4,5-dihydro-pyrazolo[1,5-a]quinazolin-8-yl)-benzenesulfonamide] | < 1000 nM | 197 to 198 °C |  |
| CCCn1c(=O)c2ccc(-c3cccc(S(=O)(=O)N(C)C)c3)cc2n2nc(-c3ccccc3)cc12 [Example 40, N,N-Dimethyl-3-(4-propyl-5-oxo-2-phenyl-4,5-dihydro-pyrazolo[1,5-a]quinazolin-8-yl)-benzenesulfonamide] | < 1000 nM | 112 to 116 °C |  |
| CN(C)S(=O)(=O)c1cccc(-c2ccc3c(=O)n(CC4CC4)c4cc(-c5ccccc5)nn4c3c2)c1 [Example 42, 3-(4-Cyclopropylmethyl-5-oxo-2-phenyl-4,5-dihydro-pyrazolo[1,5-a]quinazolin-8-yl)-N,N-dimethyl-benzenesulfonamide] | < 1000 nM | 115 to 119 °C |  |
| CCn1c(=O)c2ccc(-c3ccc(N)nc3)cc2n2nc(-c3ccccc3)cc12.Cl [Example 43, 8-(6-Amino-pyridin-3-yl)-4-ethyl-2-phenyl-4H-pyrazolo[1,5-a]quinazolin-5-one] | < 1000 nM | 207 to 208 °C |  |
| CCCn1c(=O)c2ccc(-c3ccc(N)nc3)cc2n2nc(-c3ccccc3)cc12.Cl [Example 44, 8-(6-Amino-pyridin-3-yl)-2-phenyl-4-propyl-4H-pyrazolo[1,5-a]quinazolin-5-one] | < 1000 nM | > 250 °C |  |
| Cl.Nc1ccc(-c2ccc3c(=O)n(CC(F)(F)F)c4cc(-c5ccccc5)nn4c3c2)cn1 [Example 45, 8-(6-Amino-pyridin-3-yl)-2-phenyl-4-(2,2,2-trifluoro-ethyl)-4H-pyrazolo[1,5-a]quinazolin-5-one] | < 1000 nM | 227 to 230 °C |  |
| Cl.Nc1ccc(-c2ccc3c(=O)n(CC(F)F)c4cc(-c5ccccc5)nn4c3c2)cn1 [Example 46, 8-(6-Amino-pyridin-3-yl)-4-(2,2-difluoro-ethyl)-2-phenyl-4H-pyrazolo[1,5-a]quinazolin-5-one] | < 1000 nM | > 250 °C |  |
| CC(C)n1c(=O)c2ccc(-c3ccc(N)nc3)cc2n2nc(-c3ccccc3)cc12.Cl [Example 47, 8-(6-Amino-pyridin-3-yl)-4-isopropyl-2-phenyl-4H-pyrazolo[1,5-a]quinazolin-5-one] | < 1000 nM | 214 to 216 °C |  |
| Cl.Nc1ccc(-c2ccc3c(=O)n(C4CCC4)c4cc(-c5ccccc5)nn4c3c2)cn1 [Example 48, 8-(6-Amino-pyridin-3-yl)-4-cyclobutyl-2-phenyl-4H-pyrazolo[1,5-a]quinazolin-5-one] | < 1000 nM | 203 to 205 °C |  |
| CCc1cc2n(C)c(=O)c3ccc(-c4ccc(N)nc4)cc3n2n1.Cl [Example 49, 8-(6-Amino-pyridin-3-yl)-2-ethyl-4-methyl-4H-pyrazolo[1,5-a]quinazolin-5-one] | < 1000 nM | > 250 °C |  |
| CCCc1cc2n(C)c(=O)c3ccc(-c4ccc(N)nc4)cc3n2n1.Cl [Example 50, 8-(6-Amino-pyridin-3-yl)-4-methyl-2-propyl-4H-pyrazolo[1,5-a]quinazolin-5-one] | < 1000 nM | > 250 °C |  |
| CC(C)c1cc2n(C)c(=O)c3ccc(-c4ccc(N)nc4)cc3n2n1.Cl [Example 51, 8-(6-Amino-pyridin-3-yl)-2-isopropyl-4-methyl-4H-pyrazolo[1,5-a]quinazolin-5-one] | < 1000 nM | 240 to 244 °C |  |
| COCCc1cc2n(C)c(=O)c3ccc(-c4ccc(N)nc4)cc3n2n1.Cl [Example 53, 8-(6-Amino-pyridin-3-yl)-2-(2-methoxy-ethyl)-4-methyl-4H-pyrazolo[1,5-a]quinazolin-5-one] | < 1000 nM | 198 to 202 °C |  |

The remaining lines, values ahead:

| IC50 [1, 2] | melting point | IC50 ([1]; N-methylated compounds, statement in description, read-out: IC50 for mGluR2) | SMILES |
| --- | --- | --- | --- |
| < 1000 nM | > 250 °C |  | Cl.Cn1c(=O)c2ccc(-c3ccc(N)nc3)cc2n2nc(C3CC3)cc12 [Example 63, 8-(6-Amino-pyridin-3-yl)-2-cyclopropyl-4-methyl-4H-pyrazolo[1,5-a]quinazolin-5-one] |
| < 1000 nM | > 250 °C |  | Cl.Cn1c(=O)c2ccc(-c3ccc(N)nc3)cc2n2nc(C3CCC3)cc12 [Example 64, 8-(6-Amino-pyridin-3-yl)-2-cyclobutyl-4-methyl-4H-pyrazolo[1,5-a]quinazolin-5-one] |
| < 1000 nM | > 250 °C |  | Cl.Cn1c(=O)c2ccc(-c3ccc(N)nc3)cc2n2nc(C3CCCC3)cc12 [Example 65, 8-(6-Amino-pyridin-3-yl)-2-cyclopentyl-4-methyl-4H-pyrazolo[1,5-a]quinazolin-5-one] |
| < 1000 nM | > 250 °C |  | Cc1cc(-c2ccc3c(=O)n(C)c4cc(C5CCCC5)nn4c3c2)cc(C)n1.Cl [Example 66, 2-Cyclopentyl-8-(2,6-dimethyl-pyridin-4-yl)-4-methyl-4H-pyrazolo[1,5-a]quinazolin-5-one] |
| < 1000 nM | > 250 °C |  | CCn1c(=O)c2ccc(-c3cc(C)nc(C)c3)cc2n2nc(C3CCCC3)cc12.Cl [Example 70, 2-Cyclopentyl-8-(2,6-dimethyl-pyridin-4-yl)-4-ethyl-4H-pyrazolo[1,5-a]quinazolin-5-one] |
| < 1000 nM | > 250 °C |  | CCCn1c(=O)c2ccc(-c3ccc(N)nc3)cc2n2nc(C3CCCC3)cc12.Cl [Example 71, 8-(6-Amino-pyridin-3-yl)-2-cyclopentyl-4-propyl-4H-pyrazolo[1,5-a]quinazolin-5-one] |
| < 1000 nM | 194 to 197 °C |  | Cl.Cn1c(=O)c2ccc(-c3ccc(N)nc3)cc2n2nc(C3CCCCC3)cc12 [Example 74, 8-(6-Amino-pyridin-3-yl)-2-cyclohexyl-4-methyl-4H-pyrazolo[1,5-a]quinazolin-5-one] |
| < 1000 nM | > 250 °C |  | Cc1n[nH]cc1-c1ccc2c(=O)n(C)c3cc(C4CCCCC4)nn3c2c1 [Example 75, 2-Cyclohexyl-4-methyl-8-(3-methyl-1H-pyrazol-4-yl)-4H-pyrazolo[1,5-a]quinazolin-5-one] |
| < 1000 nM | > 250 °C |  | Cc1cc(-c2ccc3c(=O)n(C)c4cc(C5CCCCCC5)nn4c3c2)cc(C)n1.Cl [Example 77, 2-Cycloheptyl-8-(2,6-dimethyl-pyridin-4-yl)-4-methyl-4H-pyrazolo[1,5-a]quinazolin-5-one] |
| < 1000 nM | > 250 °C |  | Cl.Cn1c(=O)c2ccc(-c3ccc(N)nc3)cc2n2nc(Cc3ccccc3)cc12 [Example 79, 8-(6-Amino-pyridin-3-yl)-2-benzyl-4-methyl-4H-pyrazolo[1,5-a]quinazolin-5-one] |
| < 1000 nM | > 250 °C |  | Cl.Cn1c(=O)c2ccc(-c3ccc(N)nc3)cc2n2nc(-c3ccc(F)cc3)cc12 [Example 80, 8-(6-Amino-pyridin-3-yl)-2-(4-fluoro-phenyl)-4-methyl-4H-pyrazolo[1,5-a]quinazolin-5-one] |
